# According to the supplement of paper PMC10307832:
# Key:
# Test in all cases: relative viability (nuclei count vs DMSO), 5 days (fraction); higher = more cells survive
# HOP-62 = test system: HOP-62
# In short: (§1)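 One day after seeding in 1536-well plates, lung cancer cell lines were dosed by pin tool. Dosing was either single-drug or a fixed anchor-drug dose plus five library-drug doses (not always all listed) in √10 steps. After 5 days, nuclei were stained in one fix-and-stain step and counted on 4× images, and relative viability is the nuclei count of treated wells over that of vehicle wells, given as the median of duplicate plates.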
# NCI-H2009 = test system: NCI-H2009
# In short: as §1
# NCI-H3122 = test system: NCI-H3122
# In short: as §1
# NCI-H2228 = test system: NCI-H2228
# In short: as §1
# SW 1573 = test system: SW 1573
# In short: as §1
# SK-MES-1 = test system: SK-MES-1
# In short: as §1
# NCI-H2085 = test system: NCI-H2085
# In short: as §1
# NCI-H2347 = test system: NCI-H2347
# In short: as §1
# NCI-H1734 = test system: NCI-H1734
# In short: as §1
# LK-2 = test system: LK-2
# In short: as §1
# RERF-LC-KJ = test system: RERF-LC-KJ
# In short: as §1
# HCC-366 = test system: HCC-366
# In short: as §1
# LC-2-ad = test system: LC-2-ad
# In short: as §1
# PC-14 = test system: PC-14
# In short: as §1
# CAL-12T = test system: CAL-12T
# In short: as §1
# SW 900 = test system: SW 900
# In short: as §1
# HCC-78 = test system: HCC-78
# In short: as §1
# NCI-H1993 = test system: NCI-H1993
# In short: as §1
# NCI-H2405 = test system: NCI-H2405
# In short: as §1
# NCI-H1355 = test system: NCI-H1355
# In short: as §1
# ChaGo-K-1 = test system: ChaGo-K-1
# In short: as §1
# EMC-BAC-2 = test system: EMC-BAC-2
# In short: as §1
# NCI-H596 = test system: NCI-H596
# In short: as §1
compound,measurement,setting,value
CCCCCCCCCCCC1=C(O)C(=O)C=C(O)C1=O [Embelin] + CC(=O)c1c(C)c2cnc(Nc3ccc(N4CCNCC4)cn3)nc2n(C2CCCC2)c1=O [Palbociclib] (partner 0.5 µM),relative viability,HOP-62; first compound 0.08 µM,0.433
same,relative viability,HOP-62; first compound 0.8 µM,0.489
same,relative viability,HOP-62; first compound 2.53 µM,0.451
same,relative viability,HOP-62; first compound 8 µM,0.392
same,relative viability,NCI-H2009; first compound 0.08 µM,0.223
same,relative viability,NCI-H2009; first compound 0.8 µM,0.277
same,relative viability,NCI-H2009; first compound 2.53 µM,0.208
same,relative viability,NCI-H2009; first compound 8 µM,0.186
same,relative viability,NCI-H3122; first compound 0.08 µM,0.18
same,relative viability,NCI-H3122; first compound 0.8 µM,0.236
same,relative viability,NCI-H3122; first compound 2.53 µM,0.175
same,relative viability,NCI-H3122; first compound 8 µM,0.186
same,relative viability,NCI-H2228; first compound 0.08 µM,0.824
same,relative viability,NCI-H2228; first compound 0.8 µM,0.865
same,relative viability,NCI-H2228; first compound 2.53 µM,0.68
same,relative viability,NCI-H2228; first compound 8 µM,0.834
same,relative viability,SW 1573; first compound 0.08 µM,0.344
same,relative viability,SW 1573; first compound 0.8 µM,0.498
same,relative viability,SW 1573; first compound 2.53 µM,0.37
same,relative viability,SW 1573; first compound 8 µM,0.422
same,relative viability,SK-MES-1; first compound 0.08 µM,0.366
same,relative viability,SK-MES-1; first compound 0.8 µM,0.374
same,relative viability,SK-MES-1; first compound 2.53 µM,0.321
same,relative viability,SK-MES-1; first compound 8 µM,0.297
same,relative viability,NCI-H2085; first compound 0.08 µM,0.441
same,relative viability,NCI-H2085; first compound 0.8 µM,0.464
same,relative viability,NCI-H2085; first compound 2.53 µM,0.502
same,relative viability,NCI-H2085; first compound 8 µM,0.469
same,relative viability,NCI-H2347; first compound 0.08 µM,0.47
same,relative viability,NCI-H2347; first compound 0.8 µM,0.387
same,relative viability,NCI-H2347; first compound 2.53 µM,0.451
same,relative viability,NCI-H2347; first compound 8 µM,0.389
same,relative viability,NCI-H1734; first compound 0.08 µM,0.347
same,relative viability,NCI-H1734; first compound 0.8 µM,0.349
same,relative viability,NCI-H1734; first compound 2.53 µM,0.392
same,relative viability,NCI-H1734; first compound 8 µM,0.346
same,relative viability,LK-2; first compound 0.08 µM,0.647
same,relative viability,LK-2; first compound 0.8 µM,0.753
same,relative viability,LK-2; first compound 2.53 µM,0.806
same,relative viability,LK-2; first compound 8 µM,0.702
same,relative viability,RERF-LC-KJ; first compound 0.08 µM,1.15
same,relative viability,RERF-LC-KJ; first compound 0.8 µM,1.15
same,relative viability,RERF-LC-KJ; first compound 2.53 µM,1.24
same,relative viability,RERF-LC-KJ; first compound 8 µM,0.979
same,relative viability,HCC-366; first compound 0.08 µM,0.35
same,relative viability,HCC-366; first compound 0.8 µM,0.391
same,relative viability,HCC-366; first compound 2.53 µM,0.49
same,relative viability,HCC-366; first compound 8 µM,0.453
same,relative viability,LC-2-ad; first compound 0.08 µM,0.433
same,relative viability,LC-2-ad; first compound 0.8 µM,0.442
same,relative viability,LC-2-ad; first compound 2.53 µM,0.535
same,relative viability,LC-2-ad; first compound 8 µM,0.516
same,relative viability,PC-14; first compound 0.08 µM,0.548
same,relative viability,PC-14; first compound 0.8 µM,0.597
same,relative viability,PC-14; first compound 2.53 µM,0.819
same,relative viability,PC-14; first compound 8 µM,0.569
same,relative viability,CAL-12T; first compound 0.08 µM,0.483
same,relative viability,CAL-12T; first compound 0.8 µM,0.538
same,relative viability,CAL-12T; first compound 2.53 µM,0.331
same,relative viability,CAL-12T; first compound 8 µM,0.553
same,relative viability,SW 900; first compound 0.08 µM,0.644
same,relative viability,SW 900; first compound 0.8 µM,0.576
same,relative viability,SW 900; first compound 2.53 µM,0.668
same,relative viability,SW 900; first compound 8 µM,0.549
same,relative viability,HCC-78; first compound 0.08 µM,0.514
same,relative viability,HCC-78; first compound 0.8 µM,0.446
same,relative viability,HCC-78; first compound 2.53 µM,0.558
same,relative viability,HCC-78; first compound 8 µM,0.48
same,relative viability,NCI-H1993; first compound 0.08 µM,0.641
same,relative viability,NCI-H1993; first compound 0.8 µM,0.674
same,relative viability,NCI-H1993; first compound 2.53 µM,0.721
same,relative viability,NCI-H1993; first compound 8 µM,0.614
same,relative viability,NCI-H2405; first compound 0.08 µM,0.543
same,relative viability,NCI-H2405; first compound 0.8 µM,0.575
same,relative viability,NCI-H2405; first compound 2.53 µM,0.511
same,relative viability,NCI-H2405; first compound 8 µM,0.535
same,relative viability,NCI-H1355; first compound 0.08 µM,0.411
same,relative viability,NCI-H1355; first compound 0.8 µM,0.416
same,relative viability,NCI-H1355; first compound 2.53 µM,0.398
same,relative viability,NCI-H1355; first compound 8 µM,0.366
same,relative viability,ChaGo-K-1; first compound 0.08 µM,0.911
same,relative viability,ChaGo-K-1; first compound 0.8 µM,1.01
same,relative viability,ChaGo-K-1; first compound 2.53 µM,1.01
same,relative viability,ChaGo-K-1; first compound 8 µM,0.981
same,relative viability,EMC-BAC-2; first compound 0.08 µM,0.511
same,relative viability,EMC-BAC-2; first compound 0.8 µM,0.547
same,relative viability,EMC-BAC-2; first compound 2.53 µM,0.536
same,relative viability,EMC-BAC-2; first compound 8 µM,0.485
CCCCCCCCCCCC1=C(O)C(=O)C=C(O)C1=O [Embelin] + CCNC(=O)c1noc(-c2cc(C(C)C)c(O)cc2O)c1-c1ccc(CN2CCOCC2)cc1 [Luminespib] (partner 0.01 µM),relative viability,HOP-62; first compound 0.08 µM,0.971
same,relative viability,HOP-62; first compound 0.8 µM,0.958
same,relative viability,HOP-62; first compound 2.53 µM,1.07
same,relative viability,HOP-62; first compound 8 µM,0.842
same,relative viability,NCI-H2009; first compound 0.08 µM,1.05
same,relative viability,NCI-H2009; first compound 0.8 µM,1.07
same,relative viability,NCI-H2009; first compound 2.53 µM,1.08
same,relative viability,NCI-H2009; first compound 8 µM,1.01
same,relative viability,NCI-H3122; first compound 0.08 µM,0.068
same,relative viability,NCI-H3122; first compound 0.8 µM,0.0941
same,relative viability,NCI-H3122; first compound 2.53 µM,0.0799
same,relative viability,NCI-H3122; first compound 8 µM,0.0894
same,relative viability,NCI-H2228; first compound 0.08 µM,0.148
same,relative viability,NCI-H2228; first compound 0.8 µM,0.13
same,relative viability,NCI-H2228; first compound 2.53 µM,0.228
same,relative viability,NCI-H2228; first compound 8 µM,0.151
same,relative viability,SW 1573; first compound 0.08 µM,0.256
same,relative viability,SW 1573; first compound 0.8 µM,0.341
same,relative viability,SW 1573; first compound 2.53 µM,0.252
same,relative viability,SW 1573; first compound 8 µM,0.216
same,relative viability,SK-MES-1; first compound 0.08 µM,0.723
same,relative viability,SK-MES-1; first compound 0.8 µM,1.05
same,relative viability,SK-MES-1; first compound 2.53 µM,0.918
same,relative viability,SK-MES-1; first compound 8 µM,0.695
same,relative viability,NCI-H2085; first compound 0.08 µM,0.458
same,relative viability,NCI-H2085; first compound 0.8 µM,0.463
same,relative viability,NCI-H2085; first compound 2.53 µM,0.469
same,relative viability,NCI-H2085; first compound 8 µM,0.4
same,relative viability,NCI-H2347; first compound 0.08 µM,0.73
same,relative viability,NCI-H2347; first compound 0.8 µM,0.489
same,relative viability,NCI-H2347; first compound 2.53 µM,0.686
same,relative viability,NCI-H2347; first compound 8 µM,0.62
same,relative viability,NCI-H596; first compound 0.08 µM,1.05
same,relative viability,NCI-H596; first compound 0.8 µM,0.795
same,relative viability,NCI-H596; first compound 2.53 µM,1.43
same,relative viability,NCI-H596; first compound 8 µM,0.904
same,relative viability,NCI-H1734; first compound 0.08 µM,0.201
same,relative viability,NCI-H1734; first compound 0.8 µM,0.208
same,relative viability,NCI-H1734; first compound 2.53 µM,0.208
same,relative viability,NCI-H1734; first compound 8 µM,0.197
same,relative viability,LK-2; first compound 0.08 µM,0.17
same,relative viability,LK-2; first compound 0.8 µM,0.281
same,relative viability,LK-2; first compound 2.53 µM,0.189
same,relative viability,LK-2; first compound 8 µM,0.198
same,relative viability,RERF-LC-KJ; first compound 0.08 µM,1.05
same,relative viability,RERF-LC-KJ; first compound 0.8 µM,1.13
same,relative viability,RERF-LC-KJ; first compound 2.53 µM,1.51
same,relative viability,RERF-LC-KJ; first compound 8 µM,0.55
same,relative viability,LC-2-ad; first compound 0.08 µM,0.892
same,relative viability,LC-2-ad; first compound 0.8 µM,1.28
same,relative viability,LC-2-ad; first compound 2.53 µM,1.1
same,relative viability,LC-2-ad; first compound 8 µM,0.806
same,relative viability,PC-14; first compound 0.08 µM,0.203
same,relative viability,PC-14; first compound 0.8 µM,0.235
same,relative viability,PC-14; first compound 2.53 µM,0.211
same,relative viability,PC-14; first compound 8 µM,0.167
same,relative viability,CAL-12T; first compound 0.08 µM,0.499
same,relative viability,CAL-12T; first compound 0.8 µM,0.69
same,relative viability,CAL-12T; first compound 2.53 µM,0.626
same,relative viability,CAL-12T; first compound 8 µM,0.189
same,relative viability,SW 900; first compound 0.08 µM,0.196
same,relative viability,SW 900; first compound 0.8 µM,0.138
same,relative viability,SW 900; first compound 2.53 µM,0.188
same,relative viability,SW 900; first compound 8 µM,0.18
same,relative viability,NCI-H1993; first compound 0.08 µM,0.848
same,relative viability,NCI-H1993; first compound 0.8 µM,0.763
same,relative viability,NCI-H1993; first compound 2.53 µM,1.04
same,relative viability,NCI-H1993; first compound 8 µM,0.963
same,relative viability,NCI-H2405; first compound 0.08 µM,0.723
same,relative viability,NCI-H2405; first compound 0.8 µM,0.681
same,relative viability,NCI-H2405; first compound 2.53 µM,0.775
same,relative viability,NCI-H2405; first compound 8 µM,0.738
same,relative viability,NCI-H1355; first compound 0.08 µM,0.764
same,relative viability,NCI-H1355; first compound 0.8 µM,0.847
same,relative viability,NCI-H1355; first compound 2.53 µM,0.837
same,relative viability,NCI-H1355; first compound 8 µM,0.657
same,relative viability,ChaGo-K-1; first compound 0.08 µM,0.529
same,relative viability,ChaGo-K-1; first compound 0.8 µM,0.755
same,relative viability,ChaGo-K-1; first compound 2.53 µM,0.776
same,relative viability,ChaGo-K-1; first compound 8 µM,0.587
same,relative viability,EMC-BAC-2; first compound 0.08 µM,1.14
same,relative viability,EMC-BAC-2; first compound 0.8 µM,1.38
same,relative viability,EMC-BAC-2; first compound 2.53 µM,1.22
same,relative viability,EMC-BAC-2; first compound 8 µM,1.29
